The assay concerns MCH receptors. In words: MCH receptor activity class (method not given). The note with it: class by percent of control at 10^-7 M or IC50.

Regarding `CN(C)c1nc(N[C@H]2CC[C@@H](NC(=O)c3ccc(-c4ccc(Cl)cc4[N+](=O)[O-])o3)CC2)nc2c1CCCC2` [compound 952, 5-(4-chloro-2-nitrophenyl)-N-(cis-4-{[4-(dimethylamino)-5,6,7,8-tetrahydroquinazolin-2-yl]amino}cyclohexyl)-2-furamide], the class is 1 (Class 1: The value of percent of control at 10^−7 M was less than 40% or the value of IC50 was less than 50 nM.).

Turning to `CN(C)c1nc(N[C@H]2CC[C@@H](NC(=O)c3ccc(Cl)s3)CC2)nc2c1CCCC2` [compound 953], the class is on record as 1 (Class 1: The value of percent of control at 10^−7 M was less than 40% or the value of IC50 was less than 50 nM.).

Turning to `CN(C)c1nc(N[C@H]2CC[C@@H](NC(=O)CCc3ccccc3O)CC2)nc2c1CCCC2` [compound 955], the class is 2 (Class 2: The value of percent of control at 10^−7 M was from 40% to 60% or the value of IC′50 was from 50 nM to 200 nM.). With `CN(C)c1nc(N[C@H]2CC[C@@H](NC(=O)c3ccc(I)o3)CC2)nc2c1CCCC2` [compound 956], the class is 1 (Class 1: The value of percent of control at 10^−7 M was less than 40% or the value of IC50 was less than 50 nM.). Consider `CN(C)c1nc(N[C@H]2CC[C@@H](NC(=O)Cc3ccccc3I)CC2)nc2c1CCCC2` [compound 957], for which the class is listed as 2 (Class 2: The value of percent of control at 10^−7 M was from 40% to 60% or the value of IC′50 was from 50 nM to 200 nM.). Next, `COc1ccc2[nH]c(C)c(CC(=O)N[C@H]3CC[C@@H](Nc4nc5c(c(N(C)C)n4)CCCC5)CC3)c2c1` [compound 958]: 2 (Class 2: The value of percent of control at 10^−7 M was from 40% to 60% or the value of IC′50 was from 50 nM to 200 nM.).

On to `CN(C)c1nc(N[C@H]2CC[C@@H](NC(=O)/C=C/c3cccc([N+](=O)[O-])c3)CC2)nc2c1CCCC2` [compound 959], for which the class was 3 (Class 3 The value of percent of control at 10^−7 M was more than 60% or the value of IC50 was more than 200 nM.). Next, `CN(C)c1nc(N[C@H]2CC[C@@H](NC(=O)c3ccccc3Cc3ccccc3)CC2)nc2c1CCCC2` [compound 961]: 2 (Class 2: The value of percent of control at 10^−7 M was from 40% to 60% or the value of IC′50 was from 50 nM to 200 nM.); `CN(C)c1nc(N[C@H]2CC[C@@H](NC(=O)C(c3ccc(Cl)cc3)c3ccc(Cl)cc3)CC2)nc2c1CCCC2` [compound 962]: 1 (Class 1: The value of percent of control at 10^−7 M was less than 40% or the value of IC50 was less than 50 nM.). Next, `Cc1ccc(-c2ccc(C(=O)N[C@H]3CC[C@@H](Nc4nc5c(c(N(C)C)n4)CCCC5)CC3)o2)c([N+](=O)[O-])c1` [compound 963]: 2 (Class 2: The value of percent of control at 10^−7 M was from 40% to 60% or the value of IC′50 was from 50 nM to 200 nM.). On to `CN(C)c1nc(N[C@H]2CC[C@@H](NC(=O)c3ccc([N+](=O)[O-])s3)CC2)nc2c1CCCC2` [compound 964], for which the class is listed as 1 (Class 1: The value of percent of control at 10^−7 M was less than 40% or the value of IC50 was less than 50 nM.). Consider `Cc1cc(C(=O)N[C@H]2CC[C@@H](Nc3nc4c(c(N(C)C)n3)CCCC4)CC2)ccc1[N+](=O)[O-]` [compound 965], for which the class was 1 (Class 1: The value of percent of control at 10^−7 M was less than 40% or the value of IC50 was less than 50 nM.). Next, `COc1cc(C(=O)N[C@H]2CC[C@@H](Nc3nc4c(c(N(C)C)n3)CCCC4)CC2)ccc1[N+](=O)[O-]` [compound 966]: 1 (Class 1: The value of percent of control at 10^−7 M was less than 40% or the value of IC50 was less than 50 nM.); `CN(C)c1nc(N[C@H]2CC[C@@H](NC(=O)c3cn(Cc4ccccc4)c4ccccc34)CC2)nc2c1CCCC2` [compound 967]: 3 (Class 3 The value of percent of control at 10^−7 M was more than 60% or the value of IC50 was more than 200 nM.); `CC(=O)c1cccc(C(=O)N[C@H]2CC[C@@H](Nc3nc4c(c(N(C)C)n3)CCCC4)CC2)c1` [compound 968]: 1 (Class 1: The value of percent of control at 10^−7 M was less than 40% or the value of IC50 was less than 50 nM.).
